Test results: US20230001083A1, “ACTUATABLE DEVICE FOR PULSATILE DRUG DELIVERY” (Massachusetts Institute of Technology, priority 2019, published 2023)
Where two headings read alike, the source gives them in different places.

Experiments:
[1] = Stability of drug formulation stored in the pump at 37° C.; format: physicochemical; conditions: stored in the pump at 37° C. for 4 weeks
[2] = In vivo pharmacokinetics of lisinopril, pump versus subcutaneous injection; conditions: for Cmax: plasma, read-out: maximum plasma concentration (Cmax)
Method: The time taken to reach the Cmax (Tmax) was 30 min in both groups. […] Drug leakage in the implanted pump was not detected during the non-actuation periods over a 28-day period.

Compound	stability of formulation in the pump [1]	Cmax ([2]; other: implanted pump, Pump-lisinopril group)	Cmax ([2]; sc, Inj-lisinopril group (subcutaneous injection))	area under the curve of plasma lisinopril concentration versus time (AUC) ([2]; pump group)	area under the curve of plasma lisinopril concentration versus time (AUC) ([2]; subcutaneous injection group)
CC(C)C[C@H]1C(=O)N2CCC[C@H]2[C@]2(O)O[C@](NC(=O)[C@@H]3C=C4c5cccc6[nH]c(Br)c(c56)C[C@H]4N(C)C3)(C(C)C)C(=O)N12 [bromocriptine]	stable without apparent denaturation				
NCCCC[C@H](N[C@@H](CCc1ccccc1)C(=O)O)C(=O)N1CCC[C@H]1C(=O)O [lisinopril]		394 ± 83.2 ng/mL	323 ± 64.7 ng/mL	25335.5 ± 7640.9 ng·min/mL	24484.5 ± 5643.8 ng·min/mL
